Like-named read-outs stand apart in the source and are kept apart here. Where a SMILES comes first, the peptide text is derived from it. Where no end group is shown, it is not given here.
Tests used:
HIV-1 = experiment: microbe, parasite or virus in culture
Protocol: Fresh human blood was obtained commercially from Interstate Blood Bank, Inc. (Memphis, Tenn.). The lymphotropic clinical isolate HIV-1ROJO was obtained from a pediatric patient attending the AIDS Clinic at the University of Alabama at Birmingham. The laboratory-adapted HIV-1IIIB strain was propagated and tittered in fresh human PBMCs; pre-titered aliquots of HIV-1ROJO and Hiv-1IIIB were removed from the freezer (−80° C.) and thawed rapidly to room temperature in a biological safety cabinet immediately before use. Phytohemagglutinin (PHA-P) was obtained from Sigma (St. Louis, Mo.) and recombinant IL-2 was obtained from Amgen (San Francisco, Calif.).
Fresh human PBMCs were isolated from screened donors, seronegative for HIV and HBV. Leukophoresed blood was diluted 1:1 with Dulbecco's phosphate buffered saline (PBS), layered over 14 mL of Ficoll-Hypaque density gradient in a 50 mL centrifuge tube and then centrifuged for 30 minutes at 600×g. Banded PBMCs were aspirated from the resulting interface and subsequently washed 2× with PBS by low speed centrifugation. After the final wash, cells were enumerated by trypan blue exclusion and re-suspended at 1×10^7 cells/mL in RPMI 1640 supplemented with 15% Fetal Bovine Serum (FBS), 2 mM L-glutamine, 4 μg/mL PHA-P. The cells were allowed to incubate for 48-72 hours at 37° C. After incubation, PBMCs were centrifuged and reset in RPMI 1640 with 15% FBS, 2 mM L-glutamine, 100 U/ml penicillin, 100 μg/mL streptomycin, 10 μg/mL gentamycin, and 20 U/mL recombinant human IL-2. PBMCs were maintained in this medium at a concentration of 1-2×10^6 cells/mL with biweekly medium changes until used in the assay protocol.
For the standard PBMC assay, PHA-P stimulated cells from at least two normal donors were pooled, diluted in fresh medium to a final concentration of 1×10^6 cells/mL, and plated in the interior wells of 96 well round bottom microplate at 50 μL/well (5×10^4 cells/well). Test drug dilutions were prepared at a 2× concentration in microtiter tubes and 100 μL of each concentration was placed in appropriate wells in a standard format. 50 μl, of a predetermined dilution of virus stock was placed in each test well (final MOI≈0.1). Wells with cells and virus alone were used for virus control. Separate plates were prepared identically without virus for drug cytotoxicity studies using an XTT assay system. The PBMC cultures were maintained for seven days following infection, at which time cell-free supernate samples were collected and assayed for reverse transcriptase activity as described below.
A microtiter based reverse transcriptase (RT) reaction was utilized. See Buckheit et al., AIDS Research and Human Retroviruses 7:295-302 (1991). Tritiated thymidine triphosphate (NEN) (TTP) was resuspended in distilled H2O at 5 Ci/ml. Poly rA and oligo dT were prepared as a stock solution which was kept at −20° C. The RT reaction buffer was prepared fresh on a daily basis and consists of 125 μl 1M EGTA, 125 μl dH2O, 110 μl 10% SDS, 50 μl 1M Tris (pH 7.4), 50 μl 1M DTT, and 40 μl 1M MgCL2. These three solutions were mixed together in a ratio of 2 parts TTP, 1 part poly rA:oligo dT, and 1 part reaction buffer. Ten microliters of this reactions mixture was placed at a round bottom microtiter plate and 15 μl of virus containing supernatant was added and mixed. The plate was incubated at 37° C. in a water bath with a solid support to prevent submersion of the plate and incubated for 60 minutes. Following reaction, the reaction volume was spotted onto pieces of DE81 paper, washed 5 times 5 minutes each in a 5% sodium phosphate buffer, 2 times 1 minute each in distilled water, 2 times for 1 minute each in 70% ethanol, and then dried. Opti-Fluor-O (Packard) was added to each sample and incorporated radioactivity was quantified utilizing a Wallac 1450 MicroBeta Plus liquid scintillation counter.

[1] = Cytotoxicity measurement by MTS staining in PBMC cultures; assay type: cell-based; conditions: human
Protocol: At assay termination the assay plates were stained with the soluble tetrazolium-based dye MTS (CellTiter Reagent, Promega) to determine cell viability and quantify compound toxicity. MTS is metabolized by the mitochondria enzymes of metabolically active cells to yield a soluble formazan product, allowing the rapid quantitative analysis cell viability and compound cytotoxicity. […] At termination of the assay, 20 μl of MTS reagent was added per well. The wells were incubated overnight for the HIV cytoprotection assay at 37° C. The incubation intervals were chosen based on empirically determined times for optimal dye reduction in each cell type. Adhesive plate sealers were used in place of the lids, the sealed plate was inverted several times to mix the soluble formazan product and the plate was read spectrophotometrically at 490 nm with a Molecular Devices Vmax plate reader.

Tsg101 = molecular target: T1, Tsg101 (Homo sapiens, UniProt Q99816); experiment: Yeast two-hybrid filter lift assay for β-Gal activity (Tsg101 / p6gag interaction); assay type: binding; parameters: key to Interactions Between Tsg101 and p6gag (β-Gal activity): +: Positive β-Gal activity indicates that the p6gag wild type or mutant protein interacts with Tsg101; conditions: for ability to bind Tsg101 protein / Tsg101-p6gag interaction (in words): yeast two-hybrid
T1 construct: expressed in transfected cells
From the text: Yeast two-hybrid assays were utilized to determine the effect of amino acid substitution mutations in the PTAP motif of HIV p6gag on the interaction between Tsg101 and p6gag. To prepare a yeast two-hybrid activation domain-Tsg101 construct, a DNA fragment encompassing the full-length coding sequence for Tsg101 according to GenBank Accession No. U82130 was obtained by PCR from a human fetal brain cDNA library and cloned into the EcoRI/Pst1 sites of the activation domain parent plasmid GADpN2 (LEU2, CEN4, ARS1, ADH1p-SV40NLS-GAL4 (768-881)-MCS (multiple cloning site)-PGK1t, AmpR, ColE1_ori).
To prepare the yeast two-hybrid DNA binding domain-HIV1 p6gag construct, a DNA fragment corresponding to the HIV1 p6 peptide derived from the HIV1.NL43 strain GAG protein was obtained by PCR from the NL43 containing plasmid R9Δapa and was cloned into the EcoRI/Sal1 sites of the binding domain parent plasmid pGBT.Q. The sequence of the amplified insert is shown in SEQ ID NO:3485. In addition, the amino acid sequence of the HIV-1NYU/BR5 GAG is provided in GenBank under Accession No. AF324493 and is listed in SEQ ID NO:3484.
The following amino acid substitution mutations were introduced by PCR into the HIV1 p6gag sequence in the yeast two-hybrid binding domain-HIV1 p6gag construct described above. The mutations were verified by DNA sequence analysis.
To test the effect of the mutations, yeast cells of the strain Y189 purchased from Clontech (ura3-52 his3*200 ade2-101 trp1-901 leu2-3,112 met gal4 gal80 URA3::GAL1p-lacZ) were co-transformed with the activation domain-Tsg101 construct and one of the binding domain-mutant p6gag constructs or the binding domain-wild type p6gag construct. Filter lift assays for β-Gal activity were conducted by lifting the transformed yeast colonies with filters, lysing the yeast cells by freezing and thawing, and contacting the lysed cells with X-Gal. […] All binding domain constructs were also tested for self-activation of β-Gal activity.

Full length Tsg101 = molecular target: T2, Full length Tsg101 (Homo sapiens, UniProt Q99816); experiment: Yeast two-hybrid liquid culture β-galactosidase assay; assay type: binding; conditions: p6 point mutants
T2 construct: expressed in transfected cells
T2 sequence (Q99816 1-390): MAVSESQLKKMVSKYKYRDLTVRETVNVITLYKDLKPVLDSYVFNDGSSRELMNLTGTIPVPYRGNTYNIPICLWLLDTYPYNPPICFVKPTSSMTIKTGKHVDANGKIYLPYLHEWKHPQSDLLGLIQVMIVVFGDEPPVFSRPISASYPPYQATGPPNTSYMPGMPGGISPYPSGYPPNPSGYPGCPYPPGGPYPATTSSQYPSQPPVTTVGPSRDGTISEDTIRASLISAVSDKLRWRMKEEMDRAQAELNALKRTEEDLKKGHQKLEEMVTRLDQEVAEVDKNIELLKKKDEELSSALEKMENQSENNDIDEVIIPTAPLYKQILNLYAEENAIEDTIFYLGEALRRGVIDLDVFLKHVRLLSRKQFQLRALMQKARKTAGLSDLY
Protocol: The interactions between TSG101 and wild-type p6gag (WT) or the p6gag PTAP mutants were further quantitated by performing liquid culture β-galactosidase assays. Cultures were grown overnight in synthetic media (-Leu, -Trp, +glucose) in 96 well plates, normalized for optical density, and lysed by addition of 6× lysis/substrate solution in 6×Z-buffer (60 mM KCl, 6 mM MgSO4, 360 mM Na2HPO4, 240 mM NaH2PO4, 6 mg/ml CPRG, 0.12 U/ml lyticase, 0.075% NP-40). Cultures were incubated for 2 hr at 37° C., clarified by centrifugation, and the optical absorbance of each supernatant was measured (575 nm). Full length Tsg101 bound wild-type p6 in the two-hybrid liquid culture assay, resulting in high levels of β-galactosidase activity (>300-fold over background). […] Each of these point mutations also arrests HIV-1 budding at a late stage (Huang et al. 1995).

[2] = fresh human PBMCs, seven days following infection, RT activity
[3] = PBMC plates without virus, tetrazolium dye staining, read-out: TC50

Molecule | Comments (anti-HIV activity) (HIV-1; fresh human PBMCs) | IC50 (HIV-1; [2]) [µM] | CC50 at 7 days [1, 3] [µM] | ability to bind Tsg101 protein / Tsg101-p6gag interaction (in words) (Tsg101) | β-galactosidase activity (in words) (Full length Tsg101) | other results
Cc1cn([C@H]2C[C@H](N=[N+]=[N-])[C@@H](CO)O2)c(=O)[nH]c1=O [AZT, 3′-Azido-3′-deoxythymidine, reference compound] | Control; Highly |  |  |  |  | IC50 (HIV-1; Human immunodeficiency virus 1, PBMC, 168 h): 0.008 µM; CC50 at 7 days [1]: > 1 µM
C[C@H](NC(=O)[C@@H](NC(=O)[C@@H]1CCCN1C(=O)[C@H](CCC(=O)O)NC(=O)[C@@H]1CCCN1C(=O)[C@H](CCCNC(=N)N)NC(=O)[C@H](CCCNC(=N)N)NC(=O)[C@H](CCCNC(=N)N)NC(=O)[C@H](CCCNC(=N)N)NC(=O)[C@H](CCCNC(=N)N)NC(=O)[C@H](CCCNC(=N)N)NC(=O)[C@H](CCCNC(=N)N)NC(=O)[C@H](CCCNC(=N)N)NC(=O)[C@@H](N)CCCNC(=N)N)[C@@H](C)O)C(=O)N1CCC[C@H]1C(=O)N[C@@H](CCC(=O)O)C(=O)N[C@@H](CCC(=O)O)C(=O)O [MPI-PEP1, NH2-(R)9-PEPTAPEE-COOH] (H-RRRRRRRRRPEPTAPEE-OH) | Active | 21.7 | > 200 |  |  | 
CC(C)C[C@H](NC(=O)[C@H](C)NC(=O)[C@@H](NC(=O)[C@@H]1CCCN1C(=O)[C@H](CCC(=O)O)NC(=O)[C@@H]1CCCN1C(=O)[C@H](CCCNC(=N)N)NC(=O)[C@H](CCCNC(=N)N)NC(=O)[C@H](CCCNC(=N)N)NC(=O)[C@H](CCCNC(=N)N)NC(=O)[C@H](CCCNC(=N)N)NC(=O)[C@H](CCCNC(=N)N)NC(=O)[C@H](CCCNC(=N)N)NC(=O)[C@H](CCCNC(=N)N)NC(=O)[C@@H](N)CCCNC(=N)N)[C@@H](C)O)C(=O)N[C@@H](CCC(=O)O)C(=O)N[C@@H](CCC(=O)O)C(=O)O [MPI-PEP2, NH2-(R)9-PEPTALEE-COOH] (H-RRRRRRRRRPEPTALEE-OH) | Inactive | > 200 | > 200 |  |  | 
C[C@H](NC(=O)[C@@H](NC(=O)[C@@H]1CCCN1C(=O)[C@H](CCC(=O)O)NC(=O)[C@@H]1CCCN1C(=O)[C@@H](N)CCCNC(=N)N)[C@@H](C)O)C(=O)N1CCC[C@H]1C(N)=O [MPI-PEP3, NH2-RPEPTAP-CO-NH2] (H-RPEPTAP-NH2) | Inactive | > 200 | > 200 |  |  | 
p6(A9R) (LQSRPEPTRPPEESFRFGEETTTPSQKQEPIDKELYPLASLRSLFGSDPSSQ; not fully specified) |  |  |  | abolishes the p6 binding affinity | reduced β-galactosidase activity to background levels | 
p6(E6G) (LQSRPGPTAPPEESFRFGEETTTPSQKQEPIDKELYPLASLRSLFGSDPSSQ; not fully specified) |  |  |  | did not result in the elimination of the Tsg101-p6gag interaction |  | Interactions Between Tsg101 and p6gag (β-Gal activity) (Tsg101; yeast Y189 co-transformed with activation domain-Tsg101 and binding domain-p6gag construct, filter lift, X-Gal): +; ability to bind Tsg101 protein / Tsg101-p6gag interaction (in words) (Tsg101; listed as E6G): capable of binding
p6(P7L) (LQSRPELTAPPEESFRFGEETTTPSQKQEPIDKELYPLASLRSLFGSDPSSQ; not fully specified) |  |  |  | abolishes the p6 binding affinity | reduced β-galactosidase activity to background levels | 
p6(P10L) (LQSRPEPTALPEESFRFGEETTTPSQKQEPIDKELYPLASLRSLFGSDPSSQ; not fully specified) |  |  |  | abolishes the p6 binding affinity | reduced β-galactosidase activity to background levels | 

Reference: patent US20100256040A1 (priority 2001, published 2010)
